Measured values published in article PMC7395850 (Biochemical and biophysical research communications, 2019).

Key:
Type in all cases: biochemical
N-phos in mouse sEH = target: T1, N-phos in mouse sEH (Mus musculus, UniProt P34914); experiment: N-phos activity assay with AttoPhos substrate, mouse sEH; conditions: for Ki: read-out: KI for mouse N-phos, competitive with respect to AttoPhos; for inhibition mechanism, mouse N-phos: with respect to the substrate AttoPhos; for selectivity index (N-phos over C-EH) in mouse sEH: IC50 C-EH / IC50 N-phos; for inhibition of mouse N-phos: inhibitor at 6 μM; for species preference of N-phos inhibition (mouse versus human), in words: mouse at 6 μM versus human at 30 μM (Figure 1D); for inhibition of mouse N-phos, in words: screening, 6 μM
T1 sequence (P34914 1-554): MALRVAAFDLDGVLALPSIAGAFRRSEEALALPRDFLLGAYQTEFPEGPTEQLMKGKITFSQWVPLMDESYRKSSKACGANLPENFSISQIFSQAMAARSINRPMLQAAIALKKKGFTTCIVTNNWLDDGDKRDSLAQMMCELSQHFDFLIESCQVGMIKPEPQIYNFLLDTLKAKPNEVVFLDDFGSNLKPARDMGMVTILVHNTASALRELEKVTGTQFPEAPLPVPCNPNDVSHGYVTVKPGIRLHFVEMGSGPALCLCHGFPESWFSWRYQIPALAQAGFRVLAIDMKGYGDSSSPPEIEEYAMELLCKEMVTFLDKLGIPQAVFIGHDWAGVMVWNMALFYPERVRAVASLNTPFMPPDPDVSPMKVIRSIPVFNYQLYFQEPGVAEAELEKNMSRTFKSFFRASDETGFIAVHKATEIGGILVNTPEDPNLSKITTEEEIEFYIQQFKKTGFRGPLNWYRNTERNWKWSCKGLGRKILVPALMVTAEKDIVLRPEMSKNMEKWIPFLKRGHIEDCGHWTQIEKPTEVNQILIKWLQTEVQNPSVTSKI

N-phos in human sEH = target: T2, N-phos in human sEH (Homo sapiens, UniProt P34913); experiment: N-phos activity assay with AttoPhos substrate, human sEH; conditions: for selectivity index (N-phos over C-EH) in human sEH: IC50 C-EH / IC50 N-phos; for Ki: read-out: KI for human N-phos, competitive with respect to AttoPhos; for inhibition mechanism, human N-phos: with respect to the substrate AttoPhos; for species preference of N-phos inhibition (human versus mouse), in words: human at 30 μM versus mouse at 6 μM (Figure 1B); for inhibition of human N-phos: inhibitor at 30 μM; for inhibition of human N-phos, in words: screening, 30 μM
T2 sequence (P34913 1-555): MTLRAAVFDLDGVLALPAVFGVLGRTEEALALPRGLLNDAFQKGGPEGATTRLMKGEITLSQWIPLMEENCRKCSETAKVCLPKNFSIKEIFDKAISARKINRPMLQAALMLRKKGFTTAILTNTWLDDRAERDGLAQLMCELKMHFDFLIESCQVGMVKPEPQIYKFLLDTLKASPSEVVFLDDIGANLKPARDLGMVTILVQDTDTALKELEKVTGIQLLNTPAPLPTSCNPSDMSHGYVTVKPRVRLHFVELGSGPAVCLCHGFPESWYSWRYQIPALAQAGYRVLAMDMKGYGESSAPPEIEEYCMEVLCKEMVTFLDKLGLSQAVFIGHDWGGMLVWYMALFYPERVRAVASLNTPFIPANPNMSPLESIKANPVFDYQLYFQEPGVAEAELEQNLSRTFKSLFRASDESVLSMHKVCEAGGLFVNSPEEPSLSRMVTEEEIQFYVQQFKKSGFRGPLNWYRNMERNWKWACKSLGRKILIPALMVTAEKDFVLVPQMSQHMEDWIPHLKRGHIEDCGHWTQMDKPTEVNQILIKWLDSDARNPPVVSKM

C-EH in mouse sEH = target: T3, C-EH in mouse sEH (Mus musculus, UniProt P34914); experiment: C-EH activity assay with PHOME substrate, mouse sEH; conditions: for IC50: read-out: IC50 for C-EH in mouse sEH, mouse sEH, PHOME substrate; for time-dependent change in C-EH inhibition, mouse sEH: preincubation time-window 1.7−120 min
T3 sequence (P34914 1-554): T1 sequence (P34914 1-554)

C-EH in human sEH = target: T4, C-EH in human sEH (Homo sapiens, UniProt P34913); experiment: C-EH activity assay with PHOME substrate, human sEH; conditions: for IC50: read-out: IC50 for C-EH in human sEH, human sEH, PHOME substrate; for time-dependent change in C-EH inhibition, human sEH: preincubation 1.7, 10, 30 and 120 min
T4 sequence (P34913 1-555): T2 sequence (P34913 1-555)

Ki (N-phos in mouse sEH)	inhibition mechanism, mouse N-phos (N-phos in mouse sEH)	Ki (N-phos in human sEH)	inhibition mechanism, human N-phos (N-phos in human sEH)	IC50 (C-EH in mouse sEH)	IC50 (C-EH in human sEH)	inhibition of human N-phos (N-phos in human sEH)	inhibition of mouse N-phos (N-phos in mouse sEH)	inhibition of mouse N-phos, in words (N-phos in mouse sEH)	inhibition of human N-phos, in words (N-phos in human sEH)	Structure (SMILES)	selectivity index (N-phos over C-EH) in human sEH (N-phos in human sEH)	also measured
–	–	–	–	–	–	–	> 75%	–	–	O=C(N[C@@H](Cc1ccccc1Cl)C(=O)O)OCC1c2ccccc2-c2ccccc21 [Compound 73, Fmoc-L-Phe(2-Cl)]	–	species preference of N-phos inhibition (mouse versus human), in words (N-phos in mouse sEH): more potent on inhibiting the mouse N-phos than the human enzyme
–	–	–	–	~200 µM	–	–	> 75%	inhibitory	inhibitory	O=C(N[C@@H](Cc1c[nH]c2ccccc12)C(=O)O)OCC1c2ccccc2-c2ccccc21 [Compound 78, Fmoc-L-Trp]	–	selectivity index (N-phos over C-EH) in mouse sEH (N-phos in mouse sEH): ~ 50; time-dependent change in C-EH inhibition, mouse sEH (C-EH in mouse sEH): did not display any time-dependent change
–	–	–	–	–	–	> 72%	> 75%	inhibitory	inhibitory	CC(C)(C)OC(=O)n1cc(C[C@H](NC(=O)OCC2c3ccccc3-c3ccccc32)C(=O)O)c2ccccc21 [Compound 95, Fmoc-L-Trp(Boc)]	–	–
–	–	–	–	–	–	> 72%	> 75%	inhibitory	inhibitory	CC(C)(C)OC(=O)n1cc(C[C@@H](NC(=O)OCC2c3ccccc3-c3ccccc32)C(=O)O)c2ccccc21 [Compound 96, Fmoc-D-Trp(Boc)]	–	–

The next lines start with the compound.

Structure (SMILES)	Ki (N-phos in mouse sEH)	inhibition mechanism, mouse N-phos (N-phos in mouse sEH)	Ki (N-phos in human sEH)	inhibition mechanism, human N-phos (N-phos in human sEH)	IC50 (C-EH in mouse sEH)	IC50 (C-EH in human sEH)	inhibition of human N-phos (N-phos in human sEH)	inhibition of mouse N-phos (N-phos in mouse sEH)	inhibition of mouse N-phos, in words (N-phos in mouse sEH)	inhibition of human N-phos, in words (N-phos in human sEH)	selectivity index (N-phos over C-EH) in human sEH (N-phos in human sEH)	also measured
CC(=O)N[C@@H](CSC/C=C(\C)CC/C=C(\C)CCC=C(C)C)C(=O)O [AFC, N-Acetyl-S-farnesyl-L-cysteine, reference compound]	33 µM	competitively	1.1 µM	competitively	48 µM	> 100 µM	–	–	–	–	> 29	–
CC(C)(C)OC(=O)N[C@@H](Cc1ccc(OCc2ccccc2)cc1)C(=O)O [Compound 23, Boc-L-Tyr(Bzl)]	9 µM	competitively	0.89 µM	competitively	–	190 µM	> 72%	–	–	–	127	species preference of N-phos inhibition (human versus mouse), in words (N-phos in human sEH): more potent on inhibiting the human N-phos than the mouse enzyme; preference for human N-phos over mouse N-phos (N-phos in human sEH; ratio of KI values): 10 fold; time-dependent change in C-EH inhibition, human sEH (C-EH in human sEH): no time-dependent change
CC(C)(C)OC(=O)N[C@H](Cc1ccc(OC(=O)OCc2ccccc2Br)cc1)C(=O)O [Compound 30, Boc-D-Tyr(2-Br-Z)]	–	–	–	–	–	–	> 72%	–	–	–	–	species preference of N-phos inhibition (human versus mouse), in words (N-phos in human sEH): more potent on inhibiting the human N-phos than the mouse enzyme
N#Cc1ccc(C[C@H](NC(=O)OCC2c3ccccc3-c3ccccc32)C(=O)O)cc1 [Compound 67, Fmoc-L-Phe(4-CN)]	1.1 µM	competitively	26 µM	competitively	85 µM	–	–	> 75%	–	–	–	selectivity index (N-phos over C-EH) in mouse sEH (N-phos in mouse sEH): 37; species preference of N-phos inhibition (mouse versus human), in words (N-phos in mouse sEH): more potent on inhibiting the mouse N-phos than the human enzyme; preference for mouse N-phos over human N-phos (N-phos in mouse sEH; ratio of KI values): 24 fold; time-dependent change in C-EH inhibition, mouse sEH (C-EH in mouse sEH): did not display any time-dependent change
COc1ccc(C[C@@H](NC(=O)OCC2c3ccccc3-c3ccccc32)C(=O)O)cc1 [Compound 72, Fmoc-D-Tyr(Me)]	–	–	–	–	–	> 200 µM	> 72%	–	–	–	> 31	time-dependent change in C-EH inhibition, human sEH (C-EH in human sEH): no time-dependent change
